# Reference: patent US20150125432A1, “Human Persistent Fetal Vasculature Neural Progenitors for Transplantation in the Inner Retina” (The Schepens Eye Research Institute, Inc., priority 2012, published 2015)
# Experiments:
# [1] = test system: NPPFV cells; experiment: Ca2+ imaging (Fura-2) of NPPFV cells after stimulation with neurotransmitters; type: cell-based, human; conditions: for percentage of responding NPPFV cells: neurotransmitter 0.1 mM, mean±SEM; for elicited [Ca2+]i of responding NPPFV cells: undifferentiated and differentiated NPPFV cells, result in words
# Description: Cells were incubated at 37° C. for 30 min in X-vivo medium (containing 3% FBS, 5 μM Fura-2 tetra-acetoxymethyl ester, 8 μM pluronic acid F127 and 250 μM sulfinpyrazone). Cells were washed in modified Mg^2+-free Hank's balanced salt solution (HBSS, 2.6 mM CaCl2, 15 mM HEPES [pH 7.4] and 250 μM sulfinpyrazone). Five types of neurotransmitters, γ-aminobutyric acid (GABA), glutamate (Glu), glycine (Gly), dopamine (Dopa) and acetylcholine (Ach) were dissolved in modified HBSS at a concentration of 0.1 mM. The largest dynamic range for Ca^2+-dependent fluorescence signals is obtained by excitation at 340 nm and 380 nm, and detecting their ratio of emission fluorescence intensities at around 510 nm. From this ratio, the concentration of intracellular Ca^2+ ([Ca^2+]i) can be estimated, using dissociation constants that are derived from calibration curves. By using the ratio of fluorescence intensities produced by excitation at two wave lengths, factors such as uneven dye distribution and photo bleaching are minimized ([…] Ratio Imaging System, Cincinnati, Ohio). The change of [Ca^2+]i was calculated from the difference between the peak Ca^2+ concentration evoked by each agonist and the control value of HBSS (before the addition of agonist). At least 80 cells were selected for analyzing the change of [Ca^2+]i evoked by each agonist, averaged over three repetitions.
# [2] = test system: B6 mouse RGCs; experiment: RGC survival assay (LIVE/DEAD) in co-culture with transfected hNPPFV cells; type: cell-based; conditions: added to hNPPFV^igf-1-tdTomato co-culture; H-1356 40 μg/ml, NBI-31772 10 μM, IGF-1R antibody 1:250; words
# Description: (§1) P0 B6 mice were euthanized with CO2 and the retinas were dissected out from the eyecups in cold Hank's buffer (Life Technologies) containing 1× Penicillin-Streptomycin-Glutamine (Life Technologies). Retinas were digested in 20 U/ml papain solution containing 100 U/ml DNaseI at 37° C. for 5-15 min; the reaction was stopped with 5 mg/ml ovomucoid protease inhibitor containing 5 mg/ml albumin. Retinas were gently triturated to obtain a single cell suspension, and cells were washed once and re-suspended in 800 μl washing buffer (0.5% BSA, 2 mM EDTA in 1×PBS). RGCs were isolated using Thy1.2 (CD90.2) microbeads and MACS® magnetic separation system (Miltenyi Biotech) following the manufacturer's instructions. […]
# (§2) Co-culture inserts and culture media were removed after 3 days; RGCs were washed with 1×PBS and stained with CalceinAM and EthD-1 (LIVE/DEAD® Viability/Cytotoxicity kit, Life Technologies) for 40 min at room temperature. Images of 4-6 view fields were randomly selected throughout each well under an Olympus inverted fluorescence microscope. Live and dead cells were counted using ImageJ 1.46 (National Institutes of Health, Bethesda, Md.) and survival rates were calculated as live cells/live+dead cells×100%. […] Images were acquired with an Olympus inverted fluorescence microscope. Neurite lengths were measured using ImageJ.
# [3] = test system: B6 mouse RGCs; experiment: Neurite outgrowth assay of RGCs in co-culture with transfected hNPPFV cells; type: cell-based; conditions: added to hNPPFV^igf-1-tdTomato co-culture; H-1356 40 μg/ml, NBI-31772 10 μM, IGF-1R antibody 1:250; words
# Description: as §1, §2
# [4] = test system: retina of adult C57BL/6 mice; experiment: Inner retinal (intravitreal) transplantation into adult C57BL/6 mice; type: in vivo, mouse; conditions: intraperitoneal RA 2 mg/kg·day, 3 weeks; result in words
# Source text: For studying their potential for inner retinal transplantation, NPPFV cells or hRPCs were intravitreally injected to 20 and 10 C57BL/6 mice, respectively. Animals were maintained in standard animal facility. To trace the transplanted cells, NPPFV cells and hRPCs were infected with an AAV2 or retrovirus vector harboring EGFP (HGTI, Boston, Mass.) following the instructions of each transfection kit, respectively. Mice (4-6 weeks of age) were deeply anesthetized with an intraperitoneal injection of ketamine (120 mg/kg) and xylazine (20 mg/kg) and pupils were dilated with 0.5% topical tropicamide. Dissociated GFP-positive cells (1×10^5 cells/2 μl) were suspended in HBSS […] of the eye through a glass micropipette connected to a 10 μl Hamilton syringe via polyethylene tubing. Sham-injected mice received HBSS without cells. All experimental animals received injection in one eye and the other eye was used as an untreated control. […] Anti-GFP antibody (1:100, ABCAM, USA) was used to enhance the fluorescence of prelabled-GFP, while anti-β-III-tubulin (1:500, Sigma, USA), anti-GFAP (1:300, Sigma, USA) and anti-synaptophysin (1:100, DAKO, USA) antibodies helped to assess the differentiation of the transplanted cells. […] Every 10th serial section was counted, measuring […] in thickness as to avoid redundancy of cell counts.
# [5] = biological target: IGF-1 receptor on B6 mouse retinal ganglion cells (mouse) (UniProt Q60751); experiment: cell-based or functional assay
# Chain of UniProt Q60751 (Q60751 31-1373): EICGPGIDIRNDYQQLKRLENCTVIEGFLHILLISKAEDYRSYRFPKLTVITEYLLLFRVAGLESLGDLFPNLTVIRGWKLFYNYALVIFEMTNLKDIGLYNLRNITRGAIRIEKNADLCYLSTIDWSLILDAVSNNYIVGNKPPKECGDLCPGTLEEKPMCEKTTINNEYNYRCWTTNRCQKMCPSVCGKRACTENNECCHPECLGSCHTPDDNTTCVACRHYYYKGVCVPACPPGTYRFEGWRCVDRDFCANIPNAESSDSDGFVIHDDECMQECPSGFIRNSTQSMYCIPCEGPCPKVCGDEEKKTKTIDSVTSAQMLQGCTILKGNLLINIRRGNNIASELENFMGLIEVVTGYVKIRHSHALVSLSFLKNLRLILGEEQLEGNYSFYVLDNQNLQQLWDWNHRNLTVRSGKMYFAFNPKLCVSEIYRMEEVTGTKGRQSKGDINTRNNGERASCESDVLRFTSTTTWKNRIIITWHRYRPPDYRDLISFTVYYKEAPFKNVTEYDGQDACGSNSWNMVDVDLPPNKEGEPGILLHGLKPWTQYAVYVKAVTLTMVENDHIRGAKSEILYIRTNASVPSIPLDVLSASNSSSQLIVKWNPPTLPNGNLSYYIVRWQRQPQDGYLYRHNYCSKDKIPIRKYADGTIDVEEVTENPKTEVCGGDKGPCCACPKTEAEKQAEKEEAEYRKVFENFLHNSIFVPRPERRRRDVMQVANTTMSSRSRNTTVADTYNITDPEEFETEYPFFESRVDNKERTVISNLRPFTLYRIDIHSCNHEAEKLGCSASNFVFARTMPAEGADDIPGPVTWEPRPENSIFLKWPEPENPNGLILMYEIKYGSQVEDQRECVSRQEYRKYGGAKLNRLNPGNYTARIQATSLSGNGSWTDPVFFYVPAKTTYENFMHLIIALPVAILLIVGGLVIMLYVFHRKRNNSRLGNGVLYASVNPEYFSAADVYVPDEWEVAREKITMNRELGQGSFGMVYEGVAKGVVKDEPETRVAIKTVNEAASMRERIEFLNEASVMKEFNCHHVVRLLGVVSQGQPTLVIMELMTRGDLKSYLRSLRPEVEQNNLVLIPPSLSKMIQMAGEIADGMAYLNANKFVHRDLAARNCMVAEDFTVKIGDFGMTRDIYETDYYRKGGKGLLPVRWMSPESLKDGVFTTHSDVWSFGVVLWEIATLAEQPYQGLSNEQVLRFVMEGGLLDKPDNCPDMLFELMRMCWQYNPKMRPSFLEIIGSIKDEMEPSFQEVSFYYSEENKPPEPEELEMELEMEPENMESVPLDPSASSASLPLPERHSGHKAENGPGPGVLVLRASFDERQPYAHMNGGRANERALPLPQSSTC
Compound,percentage of responding NPPFV cells ([1]; differentiated NPPFV cells),percentage of responding NPPFV cells ([1]; undifferentiated NPPFV cells),elicited [Ca2+]i of responding NPPFV cells [1],further results
"CC(=O)OCC[N+](C)(C)C [Ach, acetylcholine]",8.23±5.41%,10.96±8.12%,,
"NCCc1ccc(O)c(O)c1 [Dopa, dopamine]",7.89±9.18%,6.41±7.14%,quite low,
"NCCCC(=O)O [GABA, γ-aminobutyric acid]",12.99±4.86%,14.94±11.73%,quite low,
"N[C@@H](CCC(=O)O)C(=O)O [Glu, glutamate]",87.88±4.97%,48.98±11.67%,significant increase,
"NCC(=O)O [Gly, glycine]",21.05±9.72%,16.67±10.62%,quite low,
O=C(O)c1cc2cc(O)c(O)cc2c(C(=O)c2ccc(O)c(O)c2)n1 [NBI-31772],,,,effect on IGF-1-tdTomato-mediated RGC survival [2]: completely eliminated the effects; effect on IGF-1-tdTomato-mediated neurite outgrowth [3]: completely eliminated the effects
"CC1=C(/C=C/C(C)=C/C=C/C(C)=C/C(=O)O)C(C)(C)CCC1 [RA, all-trans-retinoic acid]",,,,differentiation of engrafted NPPFV cells into retinal ganglion-like neurons [4]: significantly increases the differentiation of engrafts into retinal ganglion-like mature neurons
IGF-1-tdTomato fusion protein (from UniProt P05017 49-118) (ligand),,,,average neurite length of RGCs co-cultured with hNPPFV^igf-1-tdTomato cells [5]: 93 µm; neurites per RGC co-cultured with hNPPFV^igf-1-tdTomato cells (neurites/cell) [5]: 2; survival rate of RGCs co-cultured with hNPPFV^igf-1-tdTomato cells [5]: 22%
